Common to all, as to format: functional
The test system of test [1] is Rattus norvegicus. Nature of the test: Anti-inflammatory activity in Rattus norvegicus albino (rat) assessed as inhibition of carrageenan-induced paw edema at 50 mg/kg, po administered 30 min before carrageenan challenge measured after 24 hr.
The test system of test [2] is Mus musculus. Nature of the test: Analgesic activity in Mus musculus (mouse) assessed as paw withdrawal latency time at 50 mg/kg, ip after 30 min. Conditions: route intraperitoneal.
The subject of test [3] is Rattus norvegicus. Nature of the test: Anti-inflammatory activity in Rattus norvegicus albino (rat) assessed as inhibition of carrageenan-induced paw edema at 50 mg/kg, po administered 30 min before carrageenan challenge measured after 2 hr. On the technique in general: In the carrageenan paw model, swelling and tenderness develop within hours.
Test [4] deals with Rattus norvegicus. Put plainly: Anti-inflammatory activity in Rattus norvegicus albino (rat) assessed as inhibition of carrageenan-induced paw edema at 50 mg/kg, po administered 30 min before carrageenan challenge measured after 4 hr.
Test [5] concerns Rattus norvegicus. Nature of the test: Anti-inflammatory activity in Rattus norvegicus albino (rat) assessed as inhibition of carrageenan-induced paw edema at 50 mg/kg, po administered 30 min before carrageenan challenge measured after 3 hr.
Test [6] has as its system Rattus norvegicus. Nature of the test: Anti-inflammatory activity in Rattus norvegicus albino (rat) assessed as inhibition of carrageenan-induced paw edema at 50 mg/kg, po administered 30 min before carrageenan challenge measured after 1 hr.
Test [7] deals with Rattus norvegicus. Put plainly: Anti-inflammatory activity in Rattus norvegicus albino (rat) assessed as inhibition of carrageenan-induced paw edema at 10 mg/kg, po administered 30 min before carrageenan challenge measured after 2 hr.
Test [8] deals with Mus musculus. Nature of the test: Analgesic activity in Mus musculus (mouse) assessed as paw withdrawal latency time at 10 mg/kg, ip after 30 min. Conditions: route intraperitoneal.
The subject of test [9] is Rattus norvegicus. Nature of the test: Anti-inflammatory activity in Rattus norvegicus albino (rat) assessed as inhibition of carrageenan-induced paw edema at 10 mg/kg, po administered 30 min before carrageenan challenge measured after 3 hr.
For test [10], the system named is Rattus norvegicus. Nature of the test: Anti-inflammatory activity in Rattus norvegicus albino (rat) assessed as inhibition of carrageenan-induced paw edema at 10 mg/kg, po administered 30 min before carrageenan challenge measured after 1 hr.
Test [11] concerns Rattus norvegicus. Put plainly: Anti-inflammatory activity in Rattus norvegicus albino (rat) assessed as inhibition of carrageenan-induced paw edema at 10 mg/kg, po administered 30 min before carrageenan challenge measured after 24 hr.
The subject of test [12] is Rattus norvegicus. Nature of the test: Anti-inflammatory activity in Rattus norvegicus albino (rat) assessed as inhibition of carrageenan-induced paw edema at 10 mg/kg, po administered 30 min before carrageenan challenge measured after 4 hr.

From ChEMBL document CHEMBL3046740, “Lonazolac analogues: molecular modeling, synthesis, and in vivo anti-inflammatory activity” (2009) come the findings set out here.

Regarding `O=C(O)CCC(=O)/C=C/c1cn(-c2ccccc2)nc1-c1ccccc1`, the inhibition in vivo at 50 mg/kg amounted to 8.33% in the test with Rattus norvegicus [1]; 13.5% with Rattus norvegicus [3]; 23.5% in the test with Rattus norvegicus [4]; 15.5% in the test with Rattus norvegicus [5]; 27.9% in the test on Rattus norvegicus [6]. Moreover, the Time in the test with Mus musculus [2] is listed as 18.51 s.

With `NC(=O)c1ccccc1OC(=O)c1cn(-c2ccccc2)nc1-c1ccc(Br)cc1`, the inhibition in vivo at 50 mg/kg was determined as 3.09% in the test with Rattus norvegicus [1]; 10.4% in the test with Rattus norvegicus [3]; 6.14% in the test with Rattus norvegicus [4]; 8.6% in the test with Rattus norvegicus [5]; 26% in the test on Rattus norvegicus [6]. The Time with Mus musculus [2] is 7.4 s.

Take `CC(=O)Nc1ccc(OC(=O)c2cn(-c3ccccc3)nc2-c2ccc(C)cc2)cc1`: the inhibition in vivo at 50 mg/kg with Rattus norvegicus [1] stood at 9.09%; in the test on Rattus norvegicus [3], 4.17%; in the test on Rattus norvegicus [4] it was 3.7%; in the test with Rattus norvegicus [5] it was 6.32%; with Rattus norvegicus [6], 2.94%. In the test with Mus musculus [2], the Time worked out at 8.32 s.

For `NC(=O)c1ccccc1NC(=O)c1cn(-c2ccccc2)nc1-c1ccc(Cl)cc1`, the inhibition in vivo at 50 mg/kg with Rattus norvegicus [1] was 15.2%; with Rattus norvegicus [3] it was 9.38%; with Rattus norvegicus [4] it was 9.26%; in the test with Rattus norvegicus [5], 3.45%; in the test with Rattus norvegicus [6], 1.96%. Moreover, the Time in the test with Mus musculus [2] amounted to 4.89 s.

As to `NC(=O)c1ccccc1NC(=O)c1cn(-c2ccccc2)nc1-c1ccccc1`, the inhibition in vivo at 50 mg/kg in the test with Rattus norvegicus [1] is -3.79%; in the test on Rattus norvegicus [3], 13.5%; in the test with Rattus norvegicus [4], 9.88%; with Rattus norvegicus [5], 14.4%; in the test with Rattus norvegicus [6], 17.6%. Besides, in the test on Mus musculus [2], the Time amounted to 6.29 s.

On to `O=C(O)CCC(=O)/C=C/c1cn(-c2ccccc2)nc1-c1ccc(Cl)cc1`, for which the inhibition in vivo at 50 mg/kg came out at 2.27% in the test with Rattus norvegicus [1]; 10.9% in the test on Rattus norvegicus [3]; 8.64% in the test on Rattus norvegicus [4]; 6.32% with Rattus norvegicus [5]; 3.43% with Rattus norvegicus [6]. Also, the Time with Mus musculus [2] was determined as 4.09 s.

For the molecule `Cc1ccc(-c2nn(-c3ccccc3)cc2/C=C/C(=O)CCC(=O)O)cc1`, the inhibition in vivo at 50 mg/kg in the test with Rattus norvegicus [1] was determined as 3.79%; in the test on Rattus norvegicus [3], 6.25%; with Rattus norvegicus [4], 13%; in the test on Rattus norvegicus [5], 11.5%; with Rattus norvegicus [6] it was 4.41%. For the same molecule, in the test on Mus musculus [2], the Time is 6.47 s.

In the case of `COc1ccc2c(c1)c(CC(=O)O)c(C)n2C(=O)c1ccc(Cl)cc1` [INDOMETHACIN], the inhibition in vivo at 10 mg/kg in the test on Rattus norvegicus [7] was determined as 19.3%; with Rattus norvegicus [9], 21.8%; with Rattus norvegicus [10], 30.9%; in the test with Rattus norvegicus [11], 12.9%; with Rattus norvegicus [12], 24.7%. For the same molecule, in the test with Mus musculus [8], the Time is 10.5 s.

Regarding `CC(=O)Nc1ccc(OC(=O)c2cn(-c3ccccc3)nc2-c2ccc(Cl)cc2)cc1`, the inhibition in vivo at 50 mg/kg is 3.79% in the test on Rattus norvegicus [1]; 15.6% in the test on Rattus norvegicus [3]; 16.1% in the test on Rattus norvegicus [4]; 16.7% in the test on Rattus norvegicus [5]; 17.8% in the test with Rattus norvegicus [6]. Also, the Time in the test with Mus musculus [2] is reported as 18.83 s.

As a reminder, the inhibition in vivo is the relative decrease from the control value, in per cent.
